In US5968903A, “Inhibition of H. pylori proliferation” (Biomeasure, Incorporated, priority 1998, dated 1999):
Read-outs that look alike come from different tables or passages of the source. Positions of bridges follow the written chain, without caps; N, C: chain ends. Non-standard residues stand in square brackets, D forms with d. Residues, ends and D or L forms follow the SMILES beside them. *: point of attachment. X1 = O=C(CN1CCN(CCO)CC1)*

Key:
human SSTR-1 = human SSTR-1 (Homo sapiens, UniProt P30872); assay: Somatostatin receptor binding assay, hSSTR-1
human SSTR-2 = human SSTR-2 (Homo sapiens, UniProt P30874); assay: Somatostatin receptor binding assay, hSSTR-2
human SSTR-3 = human SSTR-3 (Homo sapiens, UniProt P32745); assay: Somatostatin receptor binding assay, hSSTR-3
H. pylori ATCC43504 [1] = assay: H. pylori proliferation in Brucella broth, strain ATCC43504; format: cell-based; details: for ATCC43504 bacteria number: 10^-11 mol/L, 48 h
human SSTR-5 = human SSTR-5 (Homo sapiens, UniProt P35346); assay: Somatostatin receptor binding assay, hSSTR-5
human SSTR-4 = human SSTR-4 (Homo sapiens, UniProt P31391); assay: Somatostatin receptor binding assay, hSSTR-4
H. pylori ATCC43504 [2] = details: ATCC43504, 48 h
[3] = [125I-Tyr11]somatostatin-14, CHO-K1 membranes, read-out: Ki hSSTR-1
[4] = [125I-Tyr11]somatostatin-14, CHO-K1 membranes, read-out: Ki hSSTR-2
[5] = [125I-Tyr11]somatostatin-14, CHO-K1 membranes, read-out: Ki hSSTR-3
[6] = [125I-Tyr11]somatostatin-14, CHO-K1 membranes

human SSTR-3, sequence (P32745 whole entry): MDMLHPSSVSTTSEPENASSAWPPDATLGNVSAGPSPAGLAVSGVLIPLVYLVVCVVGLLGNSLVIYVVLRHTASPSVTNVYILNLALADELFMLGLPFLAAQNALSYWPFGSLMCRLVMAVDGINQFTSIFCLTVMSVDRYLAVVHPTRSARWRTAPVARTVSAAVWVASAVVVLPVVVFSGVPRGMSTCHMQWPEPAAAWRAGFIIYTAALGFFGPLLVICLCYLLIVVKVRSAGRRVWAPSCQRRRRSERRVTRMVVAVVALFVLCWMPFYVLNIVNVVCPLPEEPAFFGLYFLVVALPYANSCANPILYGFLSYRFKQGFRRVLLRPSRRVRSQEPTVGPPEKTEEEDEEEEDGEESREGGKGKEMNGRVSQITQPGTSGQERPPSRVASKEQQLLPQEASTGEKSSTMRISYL
human SSTR-5, sequence (P35346 whole entry): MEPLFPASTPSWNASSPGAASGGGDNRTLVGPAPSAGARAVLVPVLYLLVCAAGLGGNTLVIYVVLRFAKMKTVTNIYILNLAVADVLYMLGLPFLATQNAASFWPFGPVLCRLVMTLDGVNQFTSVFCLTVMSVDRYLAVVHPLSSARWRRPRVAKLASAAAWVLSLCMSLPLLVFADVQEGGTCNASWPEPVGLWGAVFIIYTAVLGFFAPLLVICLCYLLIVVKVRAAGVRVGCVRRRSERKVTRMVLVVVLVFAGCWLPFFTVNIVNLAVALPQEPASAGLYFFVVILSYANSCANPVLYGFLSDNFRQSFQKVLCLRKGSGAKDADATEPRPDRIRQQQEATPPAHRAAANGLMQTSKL
human SSTR-1, sequence (P30872 whole entry): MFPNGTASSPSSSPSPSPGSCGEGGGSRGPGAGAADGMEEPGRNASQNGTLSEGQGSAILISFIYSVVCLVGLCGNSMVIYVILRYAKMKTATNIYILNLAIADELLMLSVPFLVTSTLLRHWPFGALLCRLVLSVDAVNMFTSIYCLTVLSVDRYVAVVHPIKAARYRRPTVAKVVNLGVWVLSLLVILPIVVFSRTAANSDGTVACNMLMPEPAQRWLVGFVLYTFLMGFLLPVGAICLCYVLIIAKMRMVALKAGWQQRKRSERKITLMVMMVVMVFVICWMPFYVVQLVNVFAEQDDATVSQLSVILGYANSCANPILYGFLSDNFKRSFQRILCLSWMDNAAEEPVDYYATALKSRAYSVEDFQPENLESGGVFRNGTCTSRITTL
human SSTR-2, sequence (P30874 whole entry): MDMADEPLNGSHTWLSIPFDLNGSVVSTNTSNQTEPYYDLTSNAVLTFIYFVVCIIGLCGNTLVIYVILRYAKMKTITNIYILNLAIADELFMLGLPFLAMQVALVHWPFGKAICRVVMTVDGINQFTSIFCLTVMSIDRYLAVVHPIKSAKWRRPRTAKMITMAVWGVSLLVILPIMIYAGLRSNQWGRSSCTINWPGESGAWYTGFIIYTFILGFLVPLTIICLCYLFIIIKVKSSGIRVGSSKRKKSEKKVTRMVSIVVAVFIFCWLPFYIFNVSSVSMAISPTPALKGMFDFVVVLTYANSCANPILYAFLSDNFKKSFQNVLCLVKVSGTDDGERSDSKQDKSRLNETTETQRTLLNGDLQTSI
human SSTR-4, sequence (P31391 whole entry): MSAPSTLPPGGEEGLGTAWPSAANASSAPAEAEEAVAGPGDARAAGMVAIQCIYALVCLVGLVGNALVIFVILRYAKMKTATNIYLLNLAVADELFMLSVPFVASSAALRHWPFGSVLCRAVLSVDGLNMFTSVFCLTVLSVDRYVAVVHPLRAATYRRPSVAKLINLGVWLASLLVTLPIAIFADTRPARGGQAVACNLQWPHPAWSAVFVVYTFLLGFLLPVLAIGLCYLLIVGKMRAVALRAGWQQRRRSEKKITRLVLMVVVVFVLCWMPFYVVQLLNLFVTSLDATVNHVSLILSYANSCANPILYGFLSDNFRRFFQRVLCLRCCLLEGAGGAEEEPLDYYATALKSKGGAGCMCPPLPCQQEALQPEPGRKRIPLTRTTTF

For `C[C@@H](O)[C@H](NC(=O)[C@@H]1CSSC[C@H](NC(=O)[C@H](N)Cc2ccc3ccccc3c2)C(=O)N[C@@H](Cc2ccc(O)cc2)C(=O)N[C@H](Cc2c[nH]c3ccccc23)C(=O)N[C@@H](CCCCN)C(=O)N[C@@H]([C@@H](C)O)C(=O)N1)C(N)=O` [Example 1, H-D-β-Nal-Cys-Tyr-D-Trp-Lys-Thr-Cys-Thr-NH2], the Ki (human SSTR-1) was 2410 nM, the Ki (human SSTR-2) was 0.75 nM and the Ki (human SSTR-3) was 97.9 nM.

For `CC(C)[C@@H]1NC(=O)[C@H](CCCCN)NC(=O)[C@@H](Cc2c[nH]c3ccccc23)NC(=O)[C@H](Cc2ccc(O)cc2)NC(=O)[C@H](C)N(C)C(=O)[C@H](Cc2ccccc2)NC1=O` [Example 76, cyclo(N-Me-Ala-Tyr-D-Trp-Lys-Val-Phe)], the “affinity for type 2 (in words)” value (human SSTR-2) was “high affinity” and the ATCC43504 bacteria number (H. pylori ATCC43504 [1]) was 2.7 ± 1.3 ×10^5 CFU/mL.

With `C[C@@H](O)[C@@H]1NC(=O)[C@H](CCCCN)NC(=O)[C@@H](Cc2c[nH]c3ccccc23)NC(=O)[C@H](Cc2ccccc2)NC(=O)[C@H](Cc2ccccc2)NC(=O)[C@@H](N)CSSC[C@@H](C(N)=O)NC(=O)[C@H](Cc2ccccc2)NC1=O` [Example 107, H-Cys-Phe-Phe-D-Trp-Lys-Thr-Phe-Cys-NH2] (H-CFF[dW]KTFC-NH2; disulfide 1-8 (inferred)) the “affinity for type 1 (in words)” value (human SSTR-1) was “some affinity”, the “affinity for type 3 (in words)” value (human SSTR-3) was “some affinity” and the “affinity for type 5 (in words)” value (human SSTR-5) was “high affinity”. For the same molecule, the ATCC43504 bacteria number (H. pylori ATCC43504 [1]) was 6.5 ± 0.7 ×10^5 CFU/mL.

For `NCCCC[C@@H]1NC(=O)[C@@H](Cc2c[nH]c3ccccc23)NC(=O)[C@H](Cc2ccccc2)NC(=O)[C@H](Cc2ccccc2)NC(=O)[C@@H](N)CSSC[C@@H](C(N)=O)NC(=O)[C@H](Cc2ccccc2)NC(=O)[C@H](CO)NC1=O` [Example 108, H-Cys-Phe-Phe-D-Trp-Lys-Ser-Phe-Cys-NH2] (H-CFF[dW]KSFC-NH2; disulfide 1-8 (inferred)), the Ki (human SSTR-1; [3]) was 27.9 nM, the Ki (human SSTR-2; [4]) was 19.3 nM and the Ki (human SSTR-3; [5]) was 35.6 nM. The Ki (human SSTR-5; [6]) was 0.85 nM.

`C[C@@H](O)[C@@H]1NC(=O)[C@H](CCCCN)NC(=O)[C@@H](Cc2c[nH]c3ccccc23)NC(=O)[C@H](Cc2ccc(O)cc2)NC(=O)[C@H](Cc2ccccc2)NC(=O)[C@@H](N)CSSC[C@@H](C(N)=O)NC(=O)[C@H](Cc2ccccc2)NC1=O` [Example 109, H-Cys-Phe-Tyr-D-Trp-Lys-Thr-Phe-Cys-NH2] (H-CFY[dW]KTFC-NH2; disulfide 1-8 (inferred)) was tested, and the Ki (human SSTR-1; [3]) was 86.9 nM, the “affinity for type 2 (in words)” value (human SSTR-2) was “high affinity” and the Ki (human SSTR-2; [4]) was 6.19 nM. For the same molecule, the “affinity for type 3 (in words)” value (human SSTR-3) was “high affinity”, the Ki (human SSTR-3; [5]) was 9.7 nM and the “affinity for type 4 (in words)” value (human SSTR-4) was “high affinity”. The Ki (human SSTR-5; [6]) was 0.34 nM and the ATCC43504 bacteria number (H. pylori ATCC43504 [1]) was 1.4 ± 0.5 ×10^5 CFU/mL.

With `C[C@@H](O)[C@H](NC(=O)[C@H](Cc1ccccc1)NC(=O)[C@@H](NC(=O)[C@H](CCCCN)NC(=O)[C@@H](Cc1c[nH]c2ccccc12)NC(=O)[C@H](Cc1ccccc1)NC(=O)[C@H](Cc1ccccc1)NC(=O)[C@H](N)Cc1ccccc1)[C@@H](C)O)C(N)=O` [Example 114, H-D-Phe-Phe-Phe-D-Trp-Lys-Thr-Phe-Thr-NH2] (H-[dF]FF[dW]KTFT-NH2) the “affinity for type 3 (in words)” value (human SSTR-3) was “high affinity”, the “affinity for type 5 (in words)” value (human SSTR-5) was “high affinity” and the ATCC43504 bacteria number (H. pylori ATCC43504 [1]) was 9.8 ± 2.0 ×10^5 CFU/mL.

With `C[C@@H](O)[C@H](NC(=O)[C@H](Cc1ccccc1)NC(=O)[C@@H](NC(=O)[C@H](CCCCN)NC(=O)[C@@H](Cc1c[nH]c2ccccc12)NC(=O)[C@H](Cc1ccccc1)NC(=O)[C@H](Cc1ccccc1)NC(=O)[C@@H](Cc1ccccc1)NC(=O)CN1CCN(CCO)CC1)[C@@H](C)O)C(N)=O` [Example 118] (X1-[dF]FF[dW]KTFT-NH2) the Ki (human SSTR-1; read-out: Ki hSSTR-1) was 47.7 nM, the Ki (human SSTR-2; read-out: Ki hSSTR-2) was 3.23 nM and the Ki (human SSTR-3; read-out: Ki hSSTR-3) was 10.9 nM. For the same molecule, the Ki (human SSTR-4) was 753 nM and the Ki (human SSTR-5) was 1.01 nM.

With `C[C@H](N)C(=O)NCC(=O)N[C@H]1CSSC[C@@H](C(=O)O)NC(=O)[C@H](CO)NC(=O)[C@H]([C@@H](C)O)NC(=O)[C@H](Cc2ccccc2)NC(=O)[C@H]([C@@H](C)O)NC(=O)[C@H](CCCCN)NC(=O)[C@H](Cc2c[nH]c3ccccc23)NC(=O)[C@H](Cc2ccccc2)NC(=O)[C@H](Cc2ccccc2)NC(=O)[C@H](CC(N)=O)NC(=O)[C@H](CCCCN)NC1=O` [somatostatin] the “decrease of bacteria number / suppression of ATCC43504 proliferation” value (H. pylori ATCC43504 [1]) was 49%, the “inhibition of ATCC43504 proliferation (in words)” value (H. pylori ATCC43504 [1]) was “inhibited proliferation of ATCC43504 in a dose-dependent manner” and the NCTC11638 bacteria number (H. pylori NCTC11638) was 1.6±0.2 ×10^6 CFU/mL. For the same molecule, the “inhibition of NCTC11638” value (H. pylori NCTC11638; NCTC11638, 48 h) was 90%, the NCTC11916 bacteria number (H. pylori NCTC11916) was 2.6±0.2 ×10^6 CFU/mL and the “inhibition of NCTC11916” value (H. pylori NCTC11916; NCTC11916, 48 h) was 79%. For the same molecule, the “inhibition of H. pylori proliferation by somatostatin” value (H. pylori ATCC43504 [2]) was 88%.
